Changes are numbered by the printed parent chain. Where two headings read alike, the source gives them in different places. Some results are limits rather than exact numbers.

The target in one data set is CYP1A2 (Homo sapiens, UniProt P05177). As to the kind of experiment: Inhibition of CYP1A2. Particulars: 50 μM phenacetin.
Data set [1] concerns the target T1, CYP2C19 (Homo sapiens, UniProt P33261). Conditions: fraction of substrate metabolized by the inhibited CYP pathway (CYP2C19); cited from earlier work.
In data set [2] the target is T2, CYP2C9 (Homo sapiens, UniProt P11712). Conditions: fraction of substrate metabolized by the inhibited CYP pathway (CYP2C9); cited from earlier work.
The target in data set [3] is T2, CYP2C9. Particulars: AUCI/AUC with multiple doses of efavirenz (steady state Cmax); CYP2C9 substrates.
The subject of data set [4] is CYP2B6. Particulars: cited from earlier work.
Data set [5] deals with T3, expressed CYP2B6 (Homo sapiens, UniProt P20813).
T3 sequence (P20813 1-491): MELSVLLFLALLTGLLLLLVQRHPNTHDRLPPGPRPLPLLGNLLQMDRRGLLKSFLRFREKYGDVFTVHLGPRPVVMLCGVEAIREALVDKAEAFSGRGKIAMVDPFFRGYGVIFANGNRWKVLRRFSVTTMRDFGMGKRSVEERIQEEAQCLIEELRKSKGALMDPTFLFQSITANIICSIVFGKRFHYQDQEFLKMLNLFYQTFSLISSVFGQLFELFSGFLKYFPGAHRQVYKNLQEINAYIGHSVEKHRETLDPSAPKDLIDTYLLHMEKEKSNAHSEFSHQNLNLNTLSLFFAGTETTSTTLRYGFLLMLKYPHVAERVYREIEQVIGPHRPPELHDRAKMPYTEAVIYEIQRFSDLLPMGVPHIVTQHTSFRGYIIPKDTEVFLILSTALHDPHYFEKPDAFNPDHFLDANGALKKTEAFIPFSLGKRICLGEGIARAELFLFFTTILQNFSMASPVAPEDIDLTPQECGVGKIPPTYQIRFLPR
As to the kind of experiment: Inhibition of expressed CYP2B6. The data set is classed as in vitro ADME. Particulars: substrate bupropion.

The next data set deals with UGT2B7. Particulars: in vitro; cited from earlier work.
Data set [6] addresses T1, CYP2C19. Briefly: Inhibition of CYP2C19. The data set is classed as in vitro ADME.
Data set [7] has as its target T2, CYP2C9. Briefly: Inhibition of CYP2C9. The data set is classed as in vitro ADME.
The target of data set [8] is T4, CYP2C8 (Homo sapiens, UniProt P10632).
T4 sequence (P10632 1-490): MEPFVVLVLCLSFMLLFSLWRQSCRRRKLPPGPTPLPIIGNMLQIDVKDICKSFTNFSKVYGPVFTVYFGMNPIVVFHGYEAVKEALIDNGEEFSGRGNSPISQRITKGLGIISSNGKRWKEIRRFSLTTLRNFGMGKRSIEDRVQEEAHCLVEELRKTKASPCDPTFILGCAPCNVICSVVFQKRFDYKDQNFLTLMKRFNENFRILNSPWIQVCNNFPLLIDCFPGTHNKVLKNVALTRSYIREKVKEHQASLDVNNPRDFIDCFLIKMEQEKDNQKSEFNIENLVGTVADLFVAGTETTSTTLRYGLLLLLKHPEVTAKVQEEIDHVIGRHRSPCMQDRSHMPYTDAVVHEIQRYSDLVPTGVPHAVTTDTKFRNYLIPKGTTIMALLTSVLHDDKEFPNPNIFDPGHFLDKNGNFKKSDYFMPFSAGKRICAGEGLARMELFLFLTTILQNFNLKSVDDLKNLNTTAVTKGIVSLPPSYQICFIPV
As to the kind of experiment: Inhibition of CYP2C8. Conditions: pooled HLMs; substrate amodiaquine.

In data set [9] the target is T5, CYP2C8 (Homo sapiens, UniProt P10632, K399R/R139K).
T5 sequence (P10632 1-490 R139K/K399R): T4 sequence (P10632 1-490) with R139K, K399R
As to the kind of experiment: Inhibition of CYP2C8.

A further data set deals with T6, CYP2A6 (Homo sapiens, UniProt P11509).
T6 sequence (P11509 1-494): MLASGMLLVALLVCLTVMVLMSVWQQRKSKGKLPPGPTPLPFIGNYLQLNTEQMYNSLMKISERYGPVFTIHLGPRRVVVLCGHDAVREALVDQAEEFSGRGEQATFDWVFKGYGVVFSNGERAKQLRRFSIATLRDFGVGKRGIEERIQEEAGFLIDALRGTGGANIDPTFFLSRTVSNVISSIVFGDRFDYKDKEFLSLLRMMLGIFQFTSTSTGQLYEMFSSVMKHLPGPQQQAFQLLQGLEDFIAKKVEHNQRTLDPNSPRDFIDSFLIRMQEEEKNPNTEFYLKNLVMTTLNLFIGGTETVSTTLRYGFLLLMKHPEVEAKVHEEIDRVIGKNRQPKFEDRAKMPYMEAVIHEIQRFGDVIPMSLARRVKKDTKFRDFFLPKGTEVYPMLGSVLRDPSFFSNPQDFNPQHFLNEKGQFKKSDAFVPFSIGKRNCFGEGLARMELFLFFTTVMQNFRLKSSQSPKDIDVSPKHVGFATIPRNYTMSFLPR
As to the kind of experiment: Inhibition of CYP2A6. The data set is classed as in vitro ADME. Particulars: pooled human liver microsomes, pH 7.4, probe coumarin (7-hydroxylation). (In general: Liver microsomes are a subcellular fraction often used to study metabolism.)

Data set [10] addresses T4, CYP2C8. As to the kind of experiment: in vitro. Conditions: microsomes, pH 7.4.
Data set [11] can be described thus: Efavirenz plasma pharmacokinetics. The data set is classed as in vivo. Conditions: human, po, 600 mg.
The conditions of data set [12]: cited from earlier work.
For data set [13], the target named is expressed CYP2B6. Conditions: cited from earlier work.
The next data set has as its target CYP2D6 (Homo sapiens, UniProt P10635). Briefly: Inhibition of CYP2D6. In kind it is in vitro ADME. Particulars: pooled human liver microsomes, pH 7.4, probe dextromethorphan (O-demethylation).
Data set [14] relates to CYP2C8. Conditions: expressed CYPs; cited from earlier work.
Data set [15] concerns the target T2, CYP2C9. Conditions: in vitro study; cited from earlier work.
The target of another data set is CYP3A (Homo sapiens, UniProt P08684). Briefly: Inhibition of CYP3A. In kind it is in vitro ADME. Particulars: pooled human liver microsomes, pH 7.4, probe testosterone (6-β hydroxylation), 10 μM, inhibition of CYP3A activity, 50 μM efavirenz, pooled HLMs, 10 μM testosterone.
Data set [16] has as its system CYP isoforms (eight major CYPs except for CYP2B6). Briefly: Time-dependent inhibition of CYP isoforms in pooled HLMs. Conditions: 50 μM efavirenz. The data set is classed as in vitro ADME, human.
A further data set has as its target T7, expressed CYP2C8 (Homo sapiens, UniProt P10632).
T7 sequence (P10632 1-490): T4 sequence (P10632 1-490)
As to the kind of experiment: Inhibition of expressed CYP2C8. In kind it is in vitro ADME.

The target in data set [17] is T8, CYP2B6 (Homo sapiens, UniProt P20813).
T8 sequence (P20813 1-491): T3 sequence (P20813 1-491)
Particulars: substrate bupropion.

T1 sequence (P33261 whole entry): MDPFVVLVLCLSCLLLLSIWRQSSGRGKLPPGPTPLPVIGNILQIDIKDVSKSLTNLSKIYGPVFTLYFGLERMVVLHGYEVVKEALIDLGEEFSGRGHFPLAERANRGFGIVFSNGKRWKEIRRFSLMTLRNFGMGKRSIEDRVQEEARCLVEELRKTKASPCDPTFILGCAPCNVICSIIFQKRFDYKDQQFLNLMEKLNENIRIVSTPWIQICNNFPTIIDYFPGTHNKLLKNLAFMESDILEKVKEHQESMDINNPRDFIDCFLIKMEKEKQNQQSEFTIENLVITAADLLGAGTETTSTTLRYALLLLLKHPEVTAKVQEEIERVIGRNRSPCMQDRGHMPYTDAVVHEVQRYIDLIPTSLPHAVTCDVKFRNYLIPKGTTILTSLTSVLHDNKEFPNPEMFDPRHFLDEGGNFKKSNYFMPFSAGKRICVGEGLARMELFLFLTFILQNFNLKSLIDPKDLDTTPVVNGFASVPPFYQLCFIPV
T2 sequence (P11712 whole entry): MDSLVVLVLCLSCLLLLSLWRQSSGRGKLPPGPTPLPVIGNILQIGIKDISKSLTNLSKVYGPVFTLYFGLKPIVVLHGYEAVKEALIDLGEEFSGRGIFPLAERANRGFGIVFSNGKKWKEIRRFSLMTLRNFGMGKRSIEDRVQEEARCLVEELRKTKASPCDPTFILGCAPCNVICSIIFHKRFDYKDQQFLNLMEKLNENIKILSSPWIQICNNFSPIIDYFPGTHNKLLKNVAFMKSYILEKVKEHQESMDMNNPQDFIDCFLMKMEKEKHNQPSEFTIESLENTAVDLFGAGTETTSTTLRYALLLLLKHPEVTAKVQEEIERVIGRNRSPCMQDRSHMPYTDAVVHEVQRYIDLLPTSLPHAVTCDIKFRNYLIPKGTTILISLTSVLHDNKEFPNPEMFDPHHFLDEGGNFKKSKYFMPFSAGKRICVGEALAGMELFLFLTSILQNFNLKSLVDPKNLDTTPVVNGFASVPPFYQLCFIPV
Chain of CYP2D6 (P10635 whole entry): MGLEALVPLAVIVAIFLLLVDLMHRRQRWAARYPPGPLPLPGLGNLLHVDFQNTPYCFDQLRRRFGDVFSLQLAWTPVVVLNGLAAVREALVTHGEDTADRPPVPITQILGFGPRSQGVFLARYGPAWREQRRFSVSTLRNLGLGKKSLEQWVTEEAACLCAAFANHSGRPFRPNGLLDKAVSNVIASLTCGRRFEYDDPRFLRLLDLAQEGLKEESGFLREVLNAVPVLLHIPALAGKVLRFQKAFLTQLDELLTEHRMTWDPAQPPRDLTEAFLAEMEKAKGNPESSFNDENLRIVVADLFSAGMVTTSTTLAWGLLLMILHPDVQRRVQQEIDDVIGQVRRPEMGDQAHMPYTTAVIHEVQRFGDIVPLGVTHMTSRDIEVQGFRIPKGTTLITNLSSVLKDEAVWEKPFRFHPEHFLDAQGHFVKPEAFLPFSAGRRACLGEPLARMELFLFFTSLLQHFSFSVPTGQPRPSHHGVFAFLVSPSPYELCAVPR
Chain of CYP1A2 (P05177 whole entry): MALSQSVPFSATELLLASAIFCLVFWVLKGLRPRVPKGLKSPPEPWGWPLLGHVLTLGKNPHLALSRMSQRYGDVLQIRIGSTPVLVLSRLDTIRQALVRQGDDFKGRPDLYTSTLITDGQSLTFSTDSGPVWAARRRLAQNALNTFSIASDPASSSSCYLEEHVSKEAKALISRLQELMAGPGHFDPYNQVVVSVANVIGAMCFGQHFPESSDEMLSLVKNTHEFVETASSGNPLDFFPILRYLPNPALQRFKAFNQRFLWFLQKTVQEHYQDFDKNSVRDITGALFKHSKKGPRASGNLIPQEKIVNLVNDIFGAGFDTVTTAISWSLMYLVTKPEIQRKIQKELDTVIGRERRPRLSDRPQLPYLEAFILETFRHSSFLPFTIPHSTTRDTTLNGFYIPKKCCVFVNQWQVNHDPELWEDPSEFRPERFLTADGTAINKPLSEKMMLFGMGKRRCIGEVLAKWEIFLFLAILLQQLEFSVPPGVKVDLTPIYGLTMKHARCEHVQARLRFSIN
Chain of CYP3A (P08684 2-503): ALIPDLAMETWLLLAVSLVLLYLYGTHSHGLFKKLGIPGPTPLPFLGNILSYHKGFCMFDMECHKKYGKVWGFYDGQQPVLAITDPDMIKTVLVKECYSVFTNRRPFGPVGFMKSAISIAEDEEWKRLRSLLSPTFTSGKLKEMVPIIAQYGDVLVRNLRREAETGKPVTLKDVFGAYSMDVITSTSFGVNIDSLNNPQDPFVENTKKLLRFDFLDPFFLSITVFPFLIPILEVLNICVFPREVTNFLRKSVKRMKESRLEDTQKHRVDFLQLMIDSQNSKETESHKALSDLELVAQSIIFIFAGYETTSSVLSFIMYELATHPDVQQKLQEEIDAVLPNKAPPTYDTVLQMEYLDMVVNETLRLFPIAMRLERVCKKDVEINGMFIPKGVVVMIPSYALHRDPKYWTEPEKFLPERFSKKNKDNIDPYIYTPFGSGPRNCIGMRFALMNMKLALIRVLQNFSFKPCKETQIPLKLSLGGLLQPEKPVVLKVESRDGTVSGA

As for `O=C1Nc2c(O)cc(Cl)cc2[C@@](C#CC2CC2)(C(F)(F)F)O1` [8-hydroxyefavirenz], the “inhibition of CYP1A2” value on CYP1A2 (8-hydroxyefavirenz up to 10 μM (0.5 to 10 μM), pooled HLMs 1 mg/ml, 30 min) is listed as ~ 20%.

As to `COc1ccc2[nH]c([S+]([O-])Cc3ncc(C)c(OC)c3C)nc2c1` (stereo not shown) [Omeprazole], the fm at CYP2C19 [1] was 0.87 [26]).

In the case of `O=C1NC(=O)C(c2ccccc2)(c2ccccc2)N1` [Phenytoin], the fm on CYP2C9 [2] was 0.90 [57]). Further, the “Predicted AUC Ratio” value on CYP2C9 [3] is on record as 1.7 -2.0.

With `CC(=O)C[C@@H](c1ccccc1)c1c(O)c2ccccc2oc1=O` [S-Warfarin], the “Predicted AUC Ratio” value on CYP2C9 [3] is 1.7 -2.0.

As to `CC(NC(C)(C)C)C(=O)c1cccc(Cl)c1` (stereo not shown) [bupropion], in the data set on CYP2B6 [4] (bupropion as CYP2B6 substrate), the Km was 90 to 130 µM.

Consider `O=C1Nc2ccc(Cl)cc2[C@@](C#CC2CC2)(C(F)(F)F)O1` [efavirenz, Efavirenz], for which the inhibition model result against expressed CYP2B6 [5] is listed as “competitive”; at CYP2C19 [6] (pooled HLMs, substrate S-mephenytoin) it was “competitive”; against CYP2C9 [7] (pooled HLMs, substrate tolbutamide), “non-competitive”; against CYP2C8 [8], “competitive”; on CYP2C8 [9] (HLMs with CYP2C8*3/*3, substrate amodiaquine), “competitive”; against expressed CYP2C8 (expressed CYP2C8, substrate amodiaquine), “competitive”. Besides, the inhibition model result at CYP2B6 [17] (CMV negative HLMs) and at CYP2B6 [17] (pooled HLMs) was “competitive” each time. Also, the Km with CYP2B6 [4] is 13 to 20 µM. The “inhibition of CYP1A2 activity” value on CYP1A2 (efavirenz 10 and 50 μM, pooled HLMs) is on record as “did not indicate that efavirenz inhibits CYP1A2 activity”. The “inhibition of UGT2B7” value in the data set on UGT2B7 is “moderate inhibitor”. The Ki on CYP2C19 [6] was 21.3 ± 2.57 µM; at CYP2C9 [7] it was 19.5 ± 2.78 µM; at CYP2C8 [9], 4.8 ± 0.35 µM; on CYP2C8 [10] it was 4.78 ± 2.24 µM; at expressed CYP2C8, 6.05 ± 2.86 µM. Further, the inhibition at 10 μM at CYP2A6 and against CYP2D6 was under 10% in each case. The inhibition at 50 μM is under 10% on CYP2A6 (10 μM), under 10% against CYP2D6 (10 μM) and over 20% against CYP3A. This compound also yielded a Cmax in data set [11] of 4.6 to 8.4 µM. Further, in data set [12], the “Ka absorption rate constant” value was 0.3 h⁻¹. For the same compound, the “KI value (time-dependent inhibition)” value at expressed CYP2B6 [13] is 30 µM. Besides, the IC50 with CYP2C8 [14] was 4 µM; at CYP2C9 [15] it was about 15 µM. The “time-dependent inhibition of CYP activity” value in [16] (preincubation for 30 min) is reported as “only marginally inhibited”. Further, the time-dependent inactivation result in data set [16] (shorter preincubation times (5-15 min)) was “did not show any indication of time-dependent inactivation”.

The Km is the concentration of substrate that gives half-maximal velocity. The Ki is a measure of affinity in units of concentration, obtained from inhibition or displacement. Low values mean tighter binding, high ones weaker binding. A word on the inhibition: it is the change of the read-out against control, counted positive when it falls. What is called Cmax is the highest concentration seen after dosing. What is called IC50 is the concentration at which inhibition is half-maximal.
